“Also recorded” adds a separate entry of the source.
Assays:
[1] = test system: Formosan subterranean termites; experiment: Petri dish treated/untreated sand bioassay for repelling activity against termites; type: in vivo, Coptotermes formosanus; parameters: key to percent of termites on untreated sand vs expected value of 50% (Chi-Square, p≦0.05): “−” indicates the test was not significantly different from the expected value; “+” indicates the test was significantly different from the expected value
Procedure: A carton nest (colony A) of Formosan subterranean termites was collected in Algiers, Louisiana in November 1997, and held in 250-liter cans. The cans were filled with pine as a food source, and kept at a temperature range of 24-26° C. Moistened corrugated cardboard rolls were used to retrieve termites from the cans. Once the termites migrated to the cardboard rolls, they were gently knocked from the cardboard rolls into clean rectangular plastic trays (40 cm×50 cm). Retrieved termites were isolated from debris by allowing them to cling to sheets of moistened paper towels. The average weight of each termite was 1.21 mg.
To test for effectiveness of nootkatone, 1,10-dihydronootkatone and tetrahydronootkatone in repelling termites, a bioassay was conducted using Petri dishes (5 cm diameter and 1 cm height). To ensure adequate moisture for the termites, 1 ml of a hot agar solution (1.5% in H2O) was spread on the bottom of the Petri dish. After the agar cooled, sand that was treated as described below was spread on the bottom of the Petri dish. For the treated sand, purified 1,10-dihydronootkatone or tetrahydronootkatone were dissolved in 2 ml ethanol, and then diluted to achieve final concentrations of 1, 2, 5, 12.5, 25, 50, and 100 μg/g sand. The solution was mixed with 1 g sand that had been autoclaved and cooled. The control sand was autoclaved sand with only 200 μl ethanol added. One half of the surfaces in the Petri dishes were covered with 1 g treated sand, and the other half with 1 g untreated sand.
The prepared Petri dishes were then used to evaluate the repelling activity against Formosan subterranean termites. Ten worker termites were added to each Petri dish, and the dishes were covered to eliminate light. Five replicate dishes were tested for each concentration and for the control. Termite position was recorded every 15 min during the first hour of testing by counting the number of termites observed on untreated sand. After the first hour, termite position was recorded each hour for 3 hr.
Differences between the percent of termites on untreated sand and an expected value were statistically analyzed by a Chi-Square analysis, using an expected value of 50% and a significance level of p≦0.05.

[2] = test system: salt marsh mosquitoes, Aedes vexans; experiment: Mosquito bites on arm treated topically with 5% solution, placed in mosquito cage; type: in vivo; details: for Number of Mosquito Bites in a 2 min Period: arm treated with 5 ml of 5% solution
Procedure: To test the repellence of tetrahydronootkatone on mosquitos, tetrahydronootkatone was dissolved in 70% isopropyl alcohol to a final concentration of 5%. This solution was used to topically apply to the arms of two male volunteers. Each volunteer cleaned each arm thoroughly with soap and water, and then wiped down each arm with 70% isopropyl alcohol. The right arm of each volunteer was treated with 5 ml of the 5% tetrahydronootkatone solution. The left arm served as a control. To test for mosquito repellence, each arm of a single volunteer was placed into a cage of freshly collected mosquitoes, about 100 mosquitos per cage. The mosquitoes were salt marsh mosquitoes, Aedes […]. After 2 min, the number of mosquito bites on each arm were counted. Tests were run at 5 min, 1 hr, 2 hr, and 3 hr after the initial application of tetrahydronootkatone.

[3] = test system: biting midges (family Ceratopogonidae, genus Culicoides); experiment: Field test of 5% solution applied to faces against biting midges in a marsh; type: in vivo; details: 5% solution in 70% isopropyl alcohol applied to faces of two volunteers
Procedure: To test the repellence of tetrahydronootkatone on biting midges (family Ceratopogonidae, genus Culicoides), tetrahydronootkatone was dissolved in 70% isopropyl alcohol to a final concentration of 5%. This solution was used to topically apply to the faces of two adult male volunteers. […] The six males went into a southern Louisiana marsh, an area known for biting midges.

## CC(C)C1CCC2CC(=O)CC(C)C2(C)C1 (stereo not drawn) [Tetrahydronootkatone, 1,4,4a,5,6,7,8,10-octahydro-6-isopropl-4,4a-dimethyl-2(1H)-naphthalenone]
[1]; 1 μg/dish, 0.25 hour
  percent of termites on untreated sand vs expected value of 50% (Chi-Square, p≦0.05): −
[1]; 1 μg/dish, 0.5 hour
  percent of termites on untreated sand vs expected value of 50% (Chi-Square, p≦0.05): −
[1]; 1 μg/dish, 0.75 hour
  percent of termites on untreated sand vs expected value of 50% (Chi-Square, p≦0.05): −
[1]; 1 μg/dish, 1 hour
  percent of termites on untreated sand vs expected value of 50% (Chi-Square, p≦0.05): −
[1]; 1 μg/dish, 2 hour
  percent of termites on untreated sand vs expected value of 50% (Chi-Square, p≦0.05): −
[1]; 1 μg/dish, 3 hour
  percent of termites on untreated sand vs expected value of 50% (Chi-Square, p≦0.05): −
[1]; 2 μg/dish, 0.25 hour
  percent of termites on untreated sand vs expected value of 50% (Chi-Square, p≦0.05): +
[1]; 2 μg/dish, 0.5 hour
  percent of termites on untreated sand vs expected value of 50% (Chi-Square, p≦0.05): +
[1]; 2 μg/dish, 0.75 hour
  percent of termites on untreated sand vs expected value of 50% (Chi-Square, p≦0.05): +
[1]; 2 μg/dish, 1 hour
  percent of termites on untreated sand vs expected value of 50% (Chi-Square, p≦0.05): +
[1]; 2 μg/dish, 2 hour
  percent of termites on untreated sand vs expected value of 50% (Chi-Square, p≦0.05): +
[1]; 2 μg/dish, 3 hour
  percent of termites on untreated sand vs expected value of 50% (Chi-Square, p≦0.05): +
[1]; 5 μg/dish, 0.25 hour
  percent of termites on untreated sand vs expected value of 50% (Chi-Square, p≦0.05): −
[1]; 5 μg/dish, 0.5 hour
  percent of termites on untreated sand vs expected value of 50% (Chi-Square, p≦0.05): +
[1]; 5 μg/dish, 0.75 hour
  percent of termites on untreated sand vs expected value of 50% (Chi-Square, p≦0.05): +
[1]; 5 μg/dish, 1 hour
  percent of termites on untreated sand vs expected value of 50% (Chi-Square, p≦0.05): +
[1]; 5 μg/dish, 2 hour
  percent of termites on untreated sand vs expected value of 50% (Chi-Square, p≦0.05): +
[1]; 5 μg/dish, 3 hour
  percent of termites on untreated sand vs expected value of 50% (Chi-Square, p≦0.05): +
[1]; 12.5 μg/dish, 0.25 hour
  percent of termites on untreated sand vs expected value of 50% (Chi-Square, p≦0.05): +
[1]; 12.5 μg/dish, 0.5 hour
  percent of termites on untreated sand vs expected value of 50% (Chi-Square, p≦0.05): +
[1]; 12.5 μg/dish, 0.75 hour
  percent of termites on untreated sand vs expected value of 50% (Chi-Square, p≦0.05): +
[1]; 12.5 μg/dish, 1 hour
  percent of termites on untreated sand vs expected value of 50% (Chi-Square, p≦0.05): +
[1]; 12.5 μg/dish, 2 hour
  percent of termites on untreated sand vs expected value of 50% (Chi-Square, p≦0.05): +
[1]; 12.5 μg/dish, 3 hour
  percent of termites on untreated sand vs expected value of 50% (Chi-Square, p≦0.05): +
[1]; 25 μg/dish, 0.25 hour
  percent of termites on untreated sand vs expected value of 50% (Chi-Square, p≦0.05): −
[1]; 25 μg/dish, 0.5 hour
  percent of termites on untreated sand vs expected value of 50% (Chi-Square, p≦0.05): +
[1]; 25 μg/dish, 0.75 hour
  percent of termites on untreated sand vs expected value of 50% (Chi-Square, p≦0.05): +
[1]; 25 μg/dish, 1 hour
  percent of termites on untreated sand vs expected value of 50% (Chi-Square, p≦0.05): +
[1]; 25 μg/dish, 2 hour
  percent of termites on untreated sand vs expected value of 50% (Chi-Square, p≦0.05): +
[1]; 25 μg/dish, 3 hour
  percent of termites on untreated sand vs expected value of 50% (Chi-Square, p≦0.05): +
[1]; 50 μg/dish, 0.25 hour
  percent of termites on untreated sand vs expected value of 50% (Chi-Square, p≦0.05): +
[1]; 50 μg/dish, 0.5 hour
  percent of termites on untreated sand vs expected value of 50% (Chi-Square, p≦0.05): +
[1]; 50 μg/dish, 0.75 hour
  percent of termites on untreated sand vs expected value of 50% (Chi-Square, p≦0.05): +
[1]; 50 μg/dish, 1 hour
  percent of termites on untreated sand vs expected value of 50% (Chi-Square, p≦0.05): +
[1]; 50 μg/dish, 2 hour
  percent of termites on untreated sand vs expected value of 50% (Chi-Square, p≦0.05): +
[1]; 50 μg/dish, 3 hour
  percent of termites on untreated sand vs expected value of 50% (Chi-Square, p≦0.05): +
[1]; 100 μg/dish, 0.25 hour
  percent of termites on untreated sand vs expected value of 50% (Chi-Square, p≦0.05): +
[1]; 100 μg/dish, 0.5 hour
  percent of termites on untreated sand vs expected value of 50% (Chi-Square, p≦0.05): +
[1]; 100 μg/dish, 0.75 hour
  percent of termites on untreated sand vs expected value of 50% (Chi-Square, p≦0.05): +
[1]; 100 μg/dish, 1 hour
  percent of termites on untreated sand vs expected value of 50% (Chi-Square, p≦0.05): +
[1]; 100 μg/dish, 2 hour
  percent of termites on untreated sand vs expected value of 50% (Chi-Square, p≦0.05): +
[1]; 100 μg/dish, 3 hour
  percent of termites on untreated sand vs expected value of 50% (Chi-Square, p≦0.05): +
[1]; relative to nootkatone
  factor by which the effective termite-repellent concentration is lower than that of nootkatone: 50
[1]; time periods up to 3 hr
  concentration effective as termite repellent: 2 µg
[2]; 5% solution, time periods up to 3 hr after the initial application
  mosquito repellence: effective mosquito repellent
[2]; Volunteer 1, 5 min after application
  Number of Mosquito Bites in a 2 min Period: 0
[2]; Volunteer 1, 1 hr after application
  Number of Mosquito Bites in a 2 min Period: 0
[2]; Volunteer 1, 2 hr after application
  Number of Mosquito Bites in a 2 min Period: 0
[2]; Volunteer 1, 3 hr after application
  Number of Mosquito Bites in a 2 min Period: 0
[2]; Volunteer 2, 5 min after application
  Number of Mosquito Bites in a 2 min Period: 0
[2]; Volunteer 2, 1 hr after application
  Number of Mosquito Bites in a 2 min Period: 0
[2]; Volunteer 2, 2 hr after application
  Number of Mosquito Bites in a 2 min Period: 0
[2]; Volunteer 2, 3 hr after application
  Number of Mosquito Bites in a 2 min Period: 2
[3]
  repellence of biting midges: fewer problems with biting midges; also recorded: effective repellent for biting midges

Reference: patent US6897244B2, “Dihydronootkatone and tetrahydronootkatone as repellents to arthropods” (Board of Supervisors of Louisiana State University and …, priority 2002, dated 2005)
